Assay results taken from the supplement of paper PMC5908809.

Tests used:
[1] = test system: normal primary NK cells, pool 2 (3 donors) (IL-2 2.5 ng/mL); assay: percent inhibition of viability; higher = more inhibition; conditions: 72 h
[2] = test system: YT (IL-2 2.5 ng/mL); assay: as above; conditions: 72 h
[3] = test system: normal primary NK cells, pool 3 (3 donors) (IL-2 2.5 ng/mL); assay: as above; conditions: 72 h
[4] = test system: normal primary NK cells, pool 1 (3 donors) (IL-2 2.5 ng/mL); assay: as above; conditions: 72 h
[5] = test system: KHYG-1 (IL-2 2.5 ng/mL); assay: as above; conditions: 72 h
[6] = test system: DERL-7 (IL-2 2.5 ng/mL); assay: as above; conditions: 72 h
[7] = test system: NKL (IL-2 2.5 ng/mL); assay: as above; conditions: 72 h
[8] = test system: KAI3 (IL-2 2.5 ng/mL); assay: as above; conditions: 72 h
[9] = test system: normal primary NK cells, pool 1 (3 donors), resting (IL-2 0 ng/mL); assay: as above; conditions: 72 h
[10] = test system: NK-YS (IL-2 2.5 ng/mL); assay: as above; conditions: 72 h
[11] = test system: IMC-1 (IL-2 20 ng/mL); assay: as above; conditions: 72 h
[12] = test system: SNK-6 (IL-2 2.5 ng/mL); assay: as above; conditions: 72 h
[13] = test system: NK-92 (IL-2 2.5 ng/mL); assay: as above; conditions: 72 h
[14] = test system: normal primary NK cells, pool 2 (3 donors) (IL-2 2.5 ng/mL); assay: drug sensitivity score (DSS) (DSS units); higher = more sensitive; extreme values may be limits of the assay; conditions: 72 h
[15] = test system: YT (IL-2 2.5 ng/mL); assay: as above; conditions: 72 h
[16] = test system: normal primary NK cells, pool 3 (3 donors) (IL-2 2.5 ng/mL); assay: as above; conditions: 72 h
[17] = test system: normal primary NK cells, pool 1 (3 donors) (IL-2 2.5 ng/mL); assay: as above; conditions: 72 h
[18] = test system: KHYG-1 (IL-2 2.5 ng/mL); assay: as above; conditions: 72 h
[19] = test system: DERL-7 (IL-2 2.5 ng/mL); assay: as above; conditions: 72 h
[20] = test system: NKL (IL-2 2.5 ng/mL); assay: as above; conditions: 72 h
[21] = test system: KAI3 (IL-2 2.5 ng/mL); assay: as above; conditions: 72 h
[22] = test system: normal primary NK cells, pool 1 (3 donors), resting (IL-2 0 ng/mL); assay: as above; conditions: 72 h
[23] = test system: NK-YS (IL-2 2.5 ng/mL); assay: as above; conditions: 72 h
[24] = test system: IMC-1 (IL-2 20 ng/mL); assay: as above; conditions: 72 h
[25] = test system: SNK-6 (IL-2 2.5 ng/mL); assay: as above; conditions: 72 h
[26] = test system: NK-92 (IL-2 2.5 ng/mL); assay: as above; conditions: 72 h
[27] = test system: normal NK cells expanded with K562-aAPC; assay: percent inhibition of viability; higher = more inhibition; conditions: 72 h, IL-2 2.5 ng/mL
Description: (§1)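 Drug sensitivity and resistance testing on K562-aAPC-expanded normal NK cells: 5 concentrations (10-fold steps over a 10,000-fold range), 72 h at 37 °C, viability by CellTiter-Glo normalised to DMSO and benzethonium chloride controls; DSS from the fitted curve.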

[28] = test system: normal NK cells expanded with K562-aAPC; assay: drug sensitivity score (DSS) (DSS units); higher = more sensitive; extreme values may be limits of the assay; conditions: 72 h; IL-2 2.5 ng/mL
Description: as §1

Cc1ccc(NC(=O)c2ccc(CN3CC[C@H](N(C)C)C3)c(C(F)(F)F)c2)cc1Nc1nccc(-c2cncnc2)n1 [Bafetinib] (max concentration tested 1000 nM)
percent inhibition of viability [%]
Conditions | 0.1 nM | 1 nM | 10 nM | 100 nM | 1000 nM
[1] | -9.03 | -9.08 | -6.83 | 2.13 | 11.8
[2] | -6.07 | -5.69 | -1.09 | 1.37 | 19.6
[3] | -3.5 | -5.78 | -5.64 | -5.35 | 13.7
[4] | -1.48 | -8.42 | -2.74 | 1.21 | 12
[5] | -4.48 | -4.63 | 1.74 | 7.43 | 22.3
[6] | -14 | 2.29 | -3.89 | -8.4 | 14.2
[7] | 5.49 | -2.75 | 4.28 | 18 | 50.2
[8] | 0.47 | 0.29 | 2.91 | 12 | 41.7
[9] | -11.6 | -4.75 | 5.74 | -0.62 | 2.62
[10] | -4.77 | -6.95 | -3.78 | -1.77 | 18.9
[11] | -6.49 | -4.43 | -0.85 | 0.31 | 1.78
[12] | -21 | 16.9 | -16.6 | -25.9 | -21.8
[13] | -11.6 | -4.05 | 0.45 | 9.61 | 26.8
[27] | -3.13 | -5.16 | -2.83 | 2.67 | 30.9

Conditions | drug sensitivity score
[14] | 0.12
[15] | 0.72
[16] | 0.06
[17] | 0.1
[18] | 1.5
[19] | 0.06
[20] | 4.77
[21] | 3.8
[22] | 0
[23] | 0.42
[24] | 0
[25] | 0
[26] | 2.35
[28] | 1.77

CCn1nnc2c(N3CCOCC3)nc(-c3ccc(NC(=O)Nc4ccc(C(=O)N5CCN(C)CC5)cc4)cc3)nc21 [PKI-402] (max concentration tested 2500 nM)
percent inhibition of viability [%]
Conditions | 0.25 nM | 2.5 nM | 25 nM | 250 nM | 2500 nM
[1] | -8.91 | -3.82 | 2.65 | 17.3 | 38.4
[2] | -3.62 | -7.8 | 0.22 | 50.5 | 82.6
[3] | -10.9 | -4.56 | 0.88 | 11 | 34.4
[4] | 1.41 | -3.9 | 19.1 | 28.9 | 48.2
[5] | -6.21 | -11 | -2.81 | 30.4 | 84.9
[6] | -1.72 | 1.39 | 10.1 | 79.5 | 93.8
[7] | -5.68 | -11.2 | 4.32 | 60 | 68.9
[8] | -2.89 | -4.76 | 8.59 | 55.9 | 67.9
[9] | -7.29 | 0.44 | 14.9 | 31.1 | 26.7
[10] | -6.47 | -8.86 | 4.39 | 52 | 75.7
[11] | -5.86 | -7.07 | -15 | -6.11 | 25.1
[12] | -8.78 | -15.4 | -7.51 | 33.2 | 54.5
[13] | -19.1 | -16.8 | -1.05 | 13.1 | 63.7
[27] | -5.93 | -8.28 | -5.99 | 11.4 | 51

Conditions | drug sensitivity score
[14] | 3.74
[15] | 10.6
[16] | 3.19
[17] | 7.21
[18] | 8.93
[19] | 15.9
[20] | 11.6
[21] | 11.4
[22] | 7.08
[23] | 10.6
[24] | 0.69
[25] | 6.93
[26] | 5.62
[28] | 4.52

CC(C)CC(=O)Nc1n[nH]c2c1CN(C(=O)C1CCN(C)CC1)C2(C)C (max concentration tested 10000 nM)
percent inhibition of viability [%]
Conditions | 1 nM | 10 nM | 100 nM | 1000 nM | 10000 nM
[1] | -7.33 | 3.3 | 10.1 | 14.3 | 85.4
[2] | 4.62 | 5.8 | 7.48 | 37.5 | 104
[3] | -6.64 | -10.6 | 9.27 | 6.31 | 54.5
[4] | 5.81 | -11.3 | 1.49 | 2.13 | 93.6
[5] | 3.79 | 5.48 | 13.2 | 79.1 | 104
[6] | -3.18 | -3.13 | 19.6 | 55.2 | 100
[7] | 9.47 | 12.1 | 8.64 | 26 | 105
[8] | 0.22 | 5.67 | 10.2 | 34.4 | 97.8
[9] | -13.4 | -45.2 | -20.7 | -66.9 | 85
[10] | -0.22 | 5.26 | 25.9 | 59.1 | 103
[11] | 3.15 | 9.36 | 18 | 101 | 101
[12] | 1.24 | 13.9 | 17.6 | 21.7 | 77.7
[13] | -3.46 | 8.8 | 18 | 15.4 | 52.1
[27] | 1.26 | -0.23 | 9.16 | 24.6 | 84.3

Conditions | drug sensitivity score
[14] | 7.11
[15] | 10.6
[16] | 3.98
[17] | 5.49
[18] | 16.4
[19] | 13.1
[20] | 9.5
[21] | 9.47
[22] | 3.02
[23] | 14.8
[24] | 21
[25] | 6.8
[26] | 5.51
[28] | 7.91

C#Cc1cccc(Nc2ncnc3cc(OCCOC)c(OCCOC)cc23)c1 [Erlotinib] (max concentration tested 10000 nM)
percent inhibition of viability [%]
Conditions | 1 nM | 10 nM | 100 nM | 1000 nM | 10000 nM
[1] | -6.62 | -1.77 | 13.4 | 4.86 | 41.7
[2] | 8.58 | 6.57 | 10.3 | 17.4 | 38.6
[3] | -5.26 | -4.35 | 6.24 | -3.65 | 27.2
[4] | 0.75 | -3.53 | 2.15 | -7.62 | 24.8
[5] | 3.49 | 6.34 | 8.19 | 9.39 | 47.6
[6] | 0.1 | -2.35 | -1.33 | 1.39 | 48.4
[7] | 5.31 | 4.23 | 11.4 | 14.5 | 38.5
[8] | 1.13 | 8.32 | -5.25 | 20 | 58.5
[9] | -2.01 | -10.5 | -8.04 | -1.92 | 55.7
[10] | 1.58 | 1.15 | 0.89 | 5.14 | 24.1
[11] | 1.33 | 9.48 | 7.46 | 12.3 | 22.8
[12] | 7.98 | 8.62 | 18.3 | 17.6 | 32.2
[13] | 9.74 | 4.56 | 24.3 | 25.9 | 43.1
[27] | 0.68 | 3.68 | 2.85 | 12.2 | 44.6

Conditions | drug sensitivity score
[14] | 2.92
[15] | 4.27
[16] | 0.89
[17] | 0.64
[18] | 4.03
[19] | 2.71
[20] | 3.76
[21] | 6.03
[22] | 2.81
[23] | 1.63
[24] | 1.94
[25] | 5.2
[26] | 7.75
[28] | 4.14

C[C@]12CC[C@H](O)CC1=CC[C@@H]1[C@@H]2CC[C@]2(C)C(c3cccnc3)=CC[C@@H]12 [Abiraterone] (max concentration tested 5000 nM)
percent inhibition of viability [%]
Conditions | 0.5 nM | 5 nM | 50 nM | 500 nM | 5000 nM
[1] | -1.86 | 7.99 | 1.79 | 9.51 | 6.09
[2] | -0.02 | 9.21 | -0.43 | 11.5 | 4.01
[3] | 5.18 | 4.84 | 1.7 | 15.9 | -1.9
[4] | -9.05 | -7.76 | 5.1 | -0.54 | -7.49
[5] | 2.05 | 18.6 | -0.59 | 2.88 | 6.94
[6] | -1.84 | 6.7 | -3.24 | 8.85 | -0.3
[7] | 8.55 | 9.91 | 1.09 | 12.8 | 9.69
[8] | 4.32 | 6.7 | 11.6 | 12.4 | 18.3
[9] | 2.81 | 1.54 | 10.1 | 10.2 | 16.1
[10] | 4.24 | -1.71 | 1.76 | 0.55 | 14
[11] | -0.05 | 0.08 | 1.73 | 4.6 | 25.9
[12] | -4.3 | -11.1 | -26.2 | -25.2 | -1.46
[13] | 3.02 | 0.66 | 4.19 | 19.8 | 18.9
[27] | -3.92 | -2.08 | -4.35 | -1.44 | 15.5

Conditions | drug sensitivity score
[14] | 0
[15] | 0
[16] | 0
[17] | 0
[18] | 0
[19] | 0
[20] | 0
[21] | 1.81
[22] | 1
[23] | 0.2
[24] | 1.72
[25] | 0.89
[26] | 3.2
[28] | 0.21
